Values after ≈ are worked out from the molar mass of the structure shown.
Legend:
[1] = test system: Aspergillus flavus; experiment: Antifungal activity against Aspergillus flavus NCIM 524 after 3 to 4 days; type: functional
[2] = test system: Staphylococcus aureus; experiment: Antimicrobial activity against Staphylococcus aureus ATCC 25923 after 24 hrs by disc diffusion method; type: functional; settings: ATCC 25923, 24 h
[3] = test system: Talaromyces marneffei; experiment: Antifungal activity against Penicillium marneffei after 3 to 4 days; type: functional
[4] = test system: Pseudomonas aeruginosa; experiment: Antimicrobial activity against Pseudomonas aeruginosa ATCC 27853 after 24 hrs by disc diffusion method; type: functional; settings: ATCC 27853, 24 h
[5] = test system: Klebsiella pneumoniae; experiment: Antimicrobial activity against Klebsiella pneumoniae after 24 hrs by disc diffusion method; type: functional
[6] = test system: Escherichia coli; experiment: Antimicrobial activity against Escherichia coli ATCC 25922 after 24 hrs by disc diffusion method; type: functional; settings: ATCC 25922, 24 h
[7] = test system: Aspergillus fumigatus; experiment: Antifungal activity against Aspergillus fumigatus NCIM 902 after 3 to 4 days; type: functional
[8] = test system: Trichophyton mentagrophytes; experiment: Antifungal activity against Trichophyton mentagrophytes after 3 to 4 days; type: functional
[9] = test system: Klebsiella pneumoniae; experiment: Antimicrobial activity against Klebsiella pneumoniae assessed as zone of inhibition at 5 mg/ml; type: functional; settings: read-out: IZ
[10] = test system: Escherichia coli; experiment: Antimicrobial activity against Escherichia coli assessed as zone of inhibition at 5 mg/ml; type: functional; settings: read-out: IZ
[11] = test system: Pseudomonas aeruginosa; experiment: Antimicrobial activity against Pseudomonas aeruginosa assessed as zone of inhibition at 5 mg/ml; type: functional; settings: read-out: IZ
[12] = test system: Staphylococcus aureus; experiment: Antimicrobial activity against Staphylococcus aureus assessed as zone of inhibition at 5 mg/ml; type: functional; settings: read-out: IZ
[13] = test system: Escherichia coli; experiment: Antimicrobial activity against Escherichia coli assessed as zone of inhibition at 10 ug/ml; type: functional; settings: read-out: IZ
[14] = test system: Bacillus subtilis; experiment: Antimicrobial activity against Bacillus subtilis assessed as zone of inhibition at 10 ug/ml; type: functional; settings: read-out: IZ
[15] = test system: Lactococcus lactis; experiment: Antimicrobial activity against Streptococcus lactis assessed as zone of inhibition at 10 ug/ml; type: functional; settings: read-out: IZ
[16] = Antifungal activity against Rhodotorula ingeniosa assessed as zone of inhibition at 10 ug/ml; type: functional; settings: Sampaiozyma ingeniosa; read-out: IZ
[17] = test system: Penicillium; experiment: Antifungal activity against Penicillium assessed as zone of inhibition at 10 ug/ml; type: functional; settings: read-out: IZ
[18] = test system: Aspergillus niger; experiment: Antifungal activity against Aspergillus niger assessed as zone of inhibition at 10 ug/ml; type: functional; settings: read-out: IZ
[19] = test system: Streptomyces; experiment: Antimicrobial activity against Streptomyces assessed as zone of inhibition at 10 ug/ml; type: functional; settings: read-out: IZ
[20] = test system: Pseudomonas; experiment: Antimicrobial activity against Pseudomonas assessed as zone of inhibition at 10 ug/ml; type: functional; settings: read-out: IZ
[21] = test system: Candida albicans; experiment: Antifungal activity against Candida albicans assessed as zone of inhibition at 10 ug/ml; type: functional; settings: read-out: IZ
[22] = test system: Candida albicans; experiment: Antifungal activity against Candida albicans MTCC 277 after 48 hrs by NCCLS protocol based method; type: functional; settings: MTCC 277, 48 h
[23] = test system: Pseudomonas aeruginosa; experiment: Antimicrobial activity against Pseudomonas aeruginosa; type: functional
[24] = test system: Staphylococcus aureus; experiment: Antimicrobial activity against Staphylococcus aureus; type: functional
[25] = test system: Escherichia coli; experiment: Antimicrobial activity against Escherichia coli; type: functional
[26] = test system: Escherichia coli; experiment: Antimicrobial activity against Escherichia coli assessed as zone of inhibition at 5 mg/ml after 24 to 48 hrs by well diffusion method; type: functional; settings: read-out: IZ
[27] = test system: Pseudomonas aeruginosa; experiment: Antimicrobial activity against Pseudomonas aeruginosa assessed as zone of inhibition at 5 mg/ml after 24 to 48 hrs by well diffusion method; type: functional; settings: read-out: IZ
[28] = test system: Escherichia coli; experiment: Antimicrobial activity against Escherichia coli ATCC 25922 after 48 hrs by NCCLS protocol based method; type: functional; settings: ATCC 25922, 48 h
[29] = test system: Bacillus subtilis; experiment: Antimicrobial activity against Bacillus subtilis; type: functional
[30] = test system: Aspergillus niger; experiment: Antifungal activity against Aspergillus niger NCIM 545 after 48 hrs by NCCLS protocol based method; type: functional; settings: NCIM 545, 48 h
[31] = test system: Bacillus subtilis; experiment: Antimicrobial activity against Bacillus subtilis NCIM 2250 after 48 hrs by NCCLS protocol based method; type: functional; settings: NCIM 2250, 48 h
[32] = test system: Proteus mirabilis; experiment: Antimicrobial activity against Proteus mirabilis; type: functional
[33] = test system: Salmonella typhimurium; experiment: Antimicrobial activity against Salmonella typhimurium; type: functional, Salmonella enterica subsp. enterica serovar Typhimurium; settings: Salmonella enterica
[34] = test system: Streptococcus pneumoniae; experiment: Antimicrobial activity against Streptococcus pneumoniae; type: functional
[35] = test system: Bacillus thuringiensis; experiment: Antimicrobial activity against Bacillus thuringiensis; type: functional
[36] = test system: Proteus vulgaris; experiment: Antimicrobial activity against Proteus vulgaris; type: functional
[37] = test system: Prescottella equi; experiment: Antimicrobial activity against Rhodococcus equi; type: functional; settings: Rhodococcus (subgen. Prescottella) equi

Row | SMILES | MIC [29] [µg/mL] | MIC [32] [µg/mL] | MIC [33] [µg/mL] | MIC [34] [µg/mL] | MIC [35] [µg/mL] | MIC [36] [µg/mL] | MIC [37] [µg/mL] | zone of inhibition at 10 µg/mL [13] [mm] | zone of inhibition at 10 µg/mL [14] [mm] | zone of inhibition at 10 µg/mL [15] [mm] | zone of inhibition at 10 µg/mL [16] [mm] | zone of inhibition at 10 µg/mL [17] [mm] | zone of inhibition at 10 µg/mL [18] [mm] | zone of inhibition at 10 µg/mL [19] [mm] | zone of inhibition at 10 µg/mL [20] [mm] | zone of inhibition at 10 µg/mL [21] [mm] | further results
1 | c1ccc(-n2nnnc2SCCCSc2nnnn2C2CC2)cc1 | – | – | – | – | – | – | – | – | – | – | – | – | – | – | – | – | MIC [1]: 6.25 to 50 µg/mL (≈ 17.3 to 139 µM); MIC [2]: 6.25 to 50 µg/mL (≈ 17.3 to 139 µM); MIC [3]: 6.25 to 50 µg/mL (≈ 17.3 to 139 µM); MIC [4]: 6.25 to 50 µg/mL (≈ 17.3 to 139 µM); MIC [5]: 6.25 to 50 µg/mL (≈ 17.3 to 139 µM); MIC [6]: 6.25 to 50 µg/mL (≈ 17.3 to 139 µM); MIC [7]: 6.25 to 50 µg/mL (≈ 17.3 to 139 µM); MIC [8]: 6.25 to 50 µg/mL (≈ 17.3 to 139 µM)
2 | Cc1ccc2cc(Cn3cc(CSc4nnnn4-c4ccccc4)nn3)c(C)nc2c1 | – | – | – | – | – | – | – | – | – | – | – | – | – | – | – | – | zone of inhibition at 5000 µg/mL [9]: 11 to 19 mm; zone of inhibition at 5000 µg/mL [10]: 11 to 19 mm; zone of inhibition at 5000 µg/mL [11]: 11 to 19 mm; zone of inhibition at 5000 µg/mL [12]: 11 to 19 mm
3 | OC[C@H]1O[C@H](n2nnnc2Cn2nnc3ccccc32)[C@H](O)[C@@H](O)[C@@H]1O | – | – | – | – | – | – | – | 11 to 15 | 11 to 15 | 11 to 15 | 11 to 15 | 11 to 15 | 11 to 15 | 11 to 15 | 11 to 15 | 11 to 15 | –
4 | CO/N=C(\C(=O)N[C@@H]1C(=O)N2C(C(=O)O)=C(CSc3nc(=O)c(O)nn3C)CS[C@H]12)c1csc(N)n1 [CEFTRIAXONE] | 0.063 to 8 (≈ 0.114 to 14.4 µM) | 0.063 to 8 (≈ 0.114 to 14.4 µM) | 0.063 to 8 (≈ 0.114 to 14.4 µM) | 0.063 to 8 (≈ 0.114 to 14.4 µM) | 0.063 to 8 (≈ 0.114 to 14.4 µM) | 0.063 to 8 (≈ 0.114 to 14.4 µM) | 0.063 to 8 (≈ 0.114 to 14.4 µM) | – | – | – | – | – | – | – | – | – | –

More lines, main results first:

Row | MIC [29] [µg/mL] | MIC [32] [µg/mL] | MIC [33] [µg/mL] | MIC [34] [µg/mL] | MIC [35] [µg/mL] | MIC [36] [µg/mL] | MIC [37] [µg/mL] | SMILES | zone of inhibition at 10 µg/mL [13] [mm] | zone of inhibition at 10 µg/mL [14] [mm] | zone of inhibition at 10 µg/mL [15] [mm] | zone of inhibition at 10 µg/mL [16] [mm] | zone of inhibition at 10 µg/mL [17] [mm] | zone of inhibition at 10 µg/mL [18] [mm] | zone of inhibition at 10 µg/mL [19] [mm] | zone of inhibition at 10 µg/mL [20] [mm] | zone of inhibition at 10 µg/mL [21] [mm] | further results
5 | 200 to 400 (≈ 344 to 688 µM) | – | – | – | – | – | – | CN[C@@H]1[C@H](O[C@H]2[C@H](O[C@H]3[C@H](O)[C@@H](O)[C@H](N=C(N)N)[C@@H](O)[C@@H]3N=C(N)N)O[C@@H](C)[C@]2(O)C=O)O[C@@H](CO)[C@H](O)[C@H]1O [STREPTOMYCIN] | 21 to 22 | 21 to 22 | 21 to 22 | 21 to 22 | 21 to 22 | 21 to 22 | 21 to 22 | 21 to 22 | 21 to 22 | MIC [22]: 10 µg/mL (≈ 17.2 µM); MIC [23]: 200 to 400 µg/mL (≈ 344 to 688 µM); MIC [24]: 200 to 400 µg/mL (≈ 344 to 688 µM); MIC [25]: 200 to 400 µg/mL (≈ 344 to 688 µM); zone of inhibition at 5000 µg/mL [26]: 26.9 mm; zone of inhibition at 5000 µg/mL [27]: 20.6 mm; MIC [28]: 10 µg/mL (≈ 17.2 µM); MIC [30]: 10 µg/mL (≈ 17.2 µM); MIC [31]: 10 µg/mL (≈ 17.2 µM)
6 | 51 to 410 (≈ 144 to 1160 µM) | 51 to 410 (≈ 144 to 1160 µM) | 51 to 410 (≈ 144 to 1160 µM) | 51 to 410 (≈ 144 to 1160 µM) | 51 to 410 (≈ 144 to 1160 µM) | 51 to 410 (≈ 144 to 1160 µM) | 51 to 410 (≈ 144 to 1160 µM) | c1ccc(N2CCN(c3ncnc4c3Sc3nnnn3N4)CC2)cc1 | – | – | – | – | – | – | – | – | – | –

From ChEMBL document CHEMBL4342421, “Current scenario of tetrazole hybrids for antibacterial activity” (Eur J Med Chem, 2019)
